Active and inactive are the calls of the source. Rule as the data show it: actives have a measured IC50 and inactives only a lower limit.
Molecular target: Envelope glycoprotein gp160 (Human immunodeficiency virus 1, UniProt Q6QLK5)
Assay: inhibitors of HIV fusion peptide binding, primary screen, biochemical, uHTS, fluorescence dequenching (AID 1986)

Envelope glycoprotein gp160, sequence (Q6QLK5 whole entry, the tested form may be a part): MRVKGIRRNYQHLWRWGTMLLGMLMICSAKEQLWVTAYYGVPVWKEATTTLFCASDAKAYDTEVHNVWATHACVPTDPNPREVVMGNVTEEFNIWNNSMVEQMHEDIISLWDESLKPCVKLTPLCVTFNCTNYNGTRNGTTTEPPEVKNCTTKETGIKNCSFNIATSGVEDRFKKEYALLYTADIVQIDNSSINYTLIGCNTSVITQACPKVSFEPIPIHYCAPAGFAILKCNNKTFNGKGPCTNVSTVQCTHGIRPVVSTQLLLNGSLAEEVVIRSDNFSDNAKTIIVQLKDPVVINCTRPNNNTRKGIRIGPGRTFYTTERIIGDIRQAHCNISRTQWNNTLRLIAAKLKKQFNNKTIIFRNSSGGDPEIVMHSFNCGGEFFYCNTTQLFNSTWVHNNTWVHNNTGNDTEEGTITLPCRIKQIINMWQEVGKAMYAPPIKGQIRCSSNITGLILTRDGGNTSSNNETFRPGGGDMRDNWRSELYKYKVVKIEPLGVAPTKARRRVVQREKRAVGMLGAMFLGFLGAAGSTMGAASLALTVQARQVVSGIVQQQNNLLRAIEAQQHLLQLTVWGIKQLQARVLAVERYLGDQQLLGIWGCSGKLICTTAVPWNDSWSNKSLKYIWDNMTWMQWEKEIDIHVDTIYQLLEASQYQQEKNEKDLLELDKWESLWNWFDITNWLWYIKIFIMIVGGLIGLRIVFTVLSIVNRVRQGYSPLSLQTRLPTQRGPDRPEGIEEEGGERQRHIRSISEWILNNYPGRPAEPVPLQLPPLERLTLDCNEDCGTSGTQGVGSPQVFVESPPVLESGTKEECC

Row | SMILES | IC50
1 | CC(C)S(=O)(=O)C1=NSC2=NC(=O)/C(=C\c3ccc(OC(=O)c4ccco4)cc3)C(=N)N21 | 26.7 µM (active)
2 | CCc1nnc(NS(=O)(=O)c2ccc(NC(=O)/C=C/c3ccccc3Cl)cc2)s1 | 23.7 µM (active)
3 | N=C1/C(=C\c2ccc(-c3cccc(C(=O)O)c3)o2)C(=O)N=C2SC=C(c3ccccc3)N12 | 6.64 µM (active)
4 | Cc1noc(NS(=O)(=O)c2ccc(NC(=O)Nc3ccc(Cl)c(Cl)c3)cc2)c1C | 19.8 µM (active)
5 | Brc1ccc(N/N=C(/N=Nc2nn[nH]n2)c2ccccc2)cc1 | 29.5 µM (active)
6 | CCOc1cc(/C=C2/C(=N)N3C(=NC2=O)SN=C3S(=O)(=O)C(C)C)ccc1OC(=O)c1ccco1 | 14.8 µM (active)
7 | COc1ccc(C(=O)COC(=O)c2ccccc2NS(=O)(=O)c2ccc(O)c([N+](=O)[O-])c2)cc1 | 16.4 µM (active)
8 | O=C(O)c1cc(NC(=O)c2ccc(Br)cc2)cc(NC(=O)c2ccc(Br)cc2)c1 | 29.4 µM (active)

Reference: ChEMBL document CHEMBL1201862, “PubChem BioAssay data set” (2004)
